The series is described as follows: Stability of API and 1:1 API/excipient mixtures stored under accelerated conditions, residual assay of API by HPLC. The series is classed as physicochemical. As to conditions: mixture. On the procedure:
As disclosed in Table 1 below, after preparing a mixture by mixing API, 1-(3-cyano-1-isopropyl-indol-5-yl)pyrazol-4-carboxylic acid, with various types of excipients such as microcrystalline cellulose, the residual assay of API at the initial stage and after 1 month, 2 months, and 3 months storage, respectively, under accelerated conditions (40° C., 75% RH; relative humidity) were measured through the analysis method and process described below.
• HPLC analysis conditions are as follows: • Column: Inertsil ODS-2 (4.6×150 mm, 5 μm, GL Science) • Detector: 254 nm, UV • Flow Rate: […] • Injection Volume: […] • Column Temperature: 40° C. • Eluent • A: Acetonitril/Purified water/TFA(Trifluoroacetic acid)=40/60/0.1(v/v/v) • B: Acetonitril/Purified water/TFA=80/20/0.1(v/v/v)

The structures appear in SMILES notation.

`CC(C)n1cc(C#N)c2cc(-n3cc(C(=O)O)cn3)ccc21` [Comparative Example 1, 1-(3-cyano-1-isopropyl-indol-5-yl)pyrazol-4-carboxylic acid]: the “residual assay of API, 3 Months” value (after 3 months storage under accelerated conditions (40° C., 75% RH)) is recorded as 98.7%. Besides, under “initial stage, accelerated conditions (40° C., 75% RH)”, the “residual assay of API, Initial” value was 98.7%.

The values are drawn from US20240000751A1, “STABLE ORAL FORMULATION CONTAINING 1-(3-CYANO-1-ISOPROPYL-INDOL-5-YL)PYRAZOLE-4-CARBOXYLIC ACID” (LG CHEM, LTD., priority 2020, published 2024).
